ChEMBL document CHEMBL1201862, “PubChem BioAssay data set” (2004)
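Compound exposure: 48 hours, 5 concentrations, 96-well plates. Abbreviation: GI50, concentration required for 50% inhibition of growth.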 Calls of active or inactive are those of the source. No stated cut-off is given here; in the data, active = GI50 up to about 1.1 µM and inactive = higher.

What was measured:
Assay in all cases: inhibition of tumour cell growth, NCI panel, 48 h
RXF 393 = test system: RXF 393
MDA-MB-231 = test system: MDA-MB-231
SK-OV-3 = test system: SK-OV-3
HL-60 = test system: HL-60
ACHN = test system: ACHN
Malme-3M = test system: Malme-3M
HOP-92 = test system: HOP-92
RPMI-8226 = test system: RPMI-8226
U-251 = test system: U-251
SF-295 = test system: SF-295
UACC-257 = test system: UACC-257
Hs-578T = test system: Hs-578T
SK-MEL-2 = test system: SK-MEL-2
LOX IMVI = test system: LOX IMVI
NCI/ADR-RES = test system: NCI/ADR-RES
SW-620 = test system: SW-620
K562 = test system: K562
SN12C = test system: SN12C
CAKI-1 = test system: CAKI-1
SR = test system: SR

Measured: GI50

CCOC(=O)C1(C#N)C2(C#N)C(N)=NC(ON=C(C)C)(ON=C(C)C)C12C#N (stereo not given)
inactive: RXF 393 > 100 µM | MDA-MB-231 62.4 µM | SK-OV-3 > 100 µM | HL-60 > 100 µM | ACHN > 100 µM | Malme-3M > 100 µM | HOP-92 > 100 µM | RPMI-8226 > 100 µM | U-251 > 100 µM | SF-295 > 100 µM | UACC-257 > 100 µM | Hs-578T > 100 µM | SK-MEL-2 > 100 µM | LOX IMVI > 100 µM | NCI/ADR-RES > 100 µM | SW-620 > 100 µM | K562 > 100 µM | SN12C > 100 µM | CAKI-1 > 100 µM | SR > 100 µM

O=C(N/N=C/c1ccc([N+](=O)[O-])cc1)Nc1ccc(Br)cc1
inactive: RXF 393 > 100 µM | MDA-MB-231 > 100 µM | SK-OV-3 68.2 µM | HL-60 40.5 µM | ACHN 60.7 µM | Malme-3M > 100 µM | HOP-92 > 100 µM | RPMI-8226 28.1 µM | U-251 69.3 µM | SF-295 > 100 µM | UACC-257 > 100 µM | Hs-578T > 100 µM | SK-MEL-2 > 100 µM | LOX IMVI 51.1 µM | NCI/ADR-RES 49.2 µM | SW-620 52 µM | K562 54 µM | SN12C 60 µM | CAKI-1 83.6 µM | SR 43.2 µM

CCOc1ccc2ccc3cccnc3c2n1
inactive: RXF 393 68.9 µM | MDA-MB-231 38.4 µM | SK-OV-3 43.4 µM | HL-60 22.3 µM | ACHN 40.6 µM | Malme-3M 97.1 µM | HOP-92 44.7 µM | RPMI-8226 23.2 µM | U-251 48.4 µM | SF-295 39.3 µM | UACC-257 26.9 µM | Hs-578T > 100 µM | SK-MEL-2 81.7 µM | LOX IMVI 49.1 µM | NCI/ADR-RES 37.7 µM | SW-620 62.7 µM | K562 31.9 µM | SN12C > 100 µM | CAKI-1 > 100 µM | SR 18.9 µM

N#CC1=C(N)OC2=C(CSc3ccccc32)C1c1ccc(Br)cc1 (stereo not given)
inactive: RXF 393 4.04 µM | MDA-MB-231 11.7 µM | SK-OV-3 13.4 µM | HL-60 2.59 µM | Malme-3M 13.4 µM | HOP-92 6.78 µM | RPMI-8226 2.07 µM | U-251 4.65 µM | SF-295 12.4 µM | UACC-257 12.1 µM | Hs-578T 28.1 µM | SK-MEL-2 5.7 µM | LOX IMVI 2.6 µM | NCI/ADR-RES 2.15 µM | SW-620 5.22 µM | K562 3.38 µM | SN12C 6.19 µM | CAKI-1 4.49 µM | SR 2.54 µM

COc1cc2c(cc1OC)C1=CCC(c3ccccc3)[N+]1(C)CC2 (stereo not given)
inactive: RXF 393 > 100 µM | MDA-MB-231 > 100 µM | SK-OV-3 > 100 µM | HL-60 > 100 µM | ACHN > 100 µM | Malme-3M 56.9 µM | HOP-92 > 100 µM | RPMI-8226 > 100 µM | U-251 > 100 µM | SF-295 > 100 µM | UACC-257 33.5 µM | Hs-578T > 100 µM | SK-MEL-2 > 100 µM | LOX IMVI > 100 µM | NCI/ADR-RES > 100 µM | SW-620 > 100 µM | K562 > 100 µM | CAKI-1 > 100 µM | SR > 100 µM

COc1ccc(/C(Cl)=C(\C=O)c2ccc(OC)c(OC)c2)cc1OC
inactive: RXF 393 37.2 µM | MDA-MB-231 > 100 µM | SK-OV-3 > 100 µM | HL-60 22.2 µM | ACHN > 100 µM | Malme-3M 56.5 µM | HOP-92 > 100 µM | RPMI-8226 70.3 µM | U-251 > 100 µM | SF-295 30.1 µM | UACC-257 41.7 µM | Hs-578T > 100 µM | SK-MEL-2 94.4 µM | LOX IMVI 33.7 µM | NCI/ADR-RES > 91.4 µM | SW-620 > 100 µM | K562 > 100 µM | SN12C > 100 µM | CAKI-1 > 100 µM | SR > 100 µM

COC(=O)c1c(OC(C)=O)ccc2c1c1c(n2C)C(=O)c2ccccc2C1=O
inactive: RXF 393 37.1 µM | MDA-MB-231 32.8 µM | SK-OV-3 12.9 µM | HL-60 32.1 µM | ACHN 15.6 µM | Malme-3M 23.9 µM | HOP-92 1.34 µM | RPMI-8226 8.15 µM | U-251 31.3 µM | SF-295 21.5 µM | UACC-257 13.1 µM | Hs-578T 8.38 µM | SK-MEL-2 23.2 µM | NCI/ADR-RES 33.9 µM | K562 66.2 µM | SN12C 39.6 µM | CAKI-1 20.7 µM | SR 31.1 µM

COc1cc2c3c(n(Cc4ccccc4)c(=O)c2cc1OC)-c1ccccc1C3=O
inactive: RXF 393 > 100 µM | MDA-MB-231 > 100 µM | HL-60 > 100 µM | ACHN > 100 µM | Malme-3M > 100 µM | HOP-92 > 100 µM | RPMI-8226 > 100 µM | U-251 64 µM | SF-295 > 100 µM | UACC-257 > 100 µM | Hs-578T 63.7 µM | SK-MEL-2 > 100 µM | LOX IMVI > 100 µM | NCI/ADR-RES > 100 µM | SW-620 > 100 µM | K562 > 100 µM | SN12C 57.1 µM | CAKI-1 92.9 µM | SR 4.1 µM

Nc1ncnc2c1ncn2C1OC(CO)=CC1O (stereo not given)
inactive: RXF 393 > 37.5 µM | MDA-MB-231 > 37.5 µM | SK-OV-3 > 37.5 µM | HL-60 > 37.5 µM | ACHN > 37.5 µM | Malme-3M > 37.5 µM | HOP-92 > 37.5 µM | RPMI-8226 > 37.5 µM | U-251 > 37.5 µM | SF-295 > 37.5 µM | UACC-257 > 37.5 µM | Hs-578T > 37.5 µM | SK-MEL-2 > 37.5 µM | LOX IMVI > 37.5 µM | NCI/ADR-RES > 37.5 µM | SW-620 > 37.5 µM | K562 > 37.5 µM | SN12C > 37.5 µM | CAKI-1 > 37.5 µM | SR > 37.5 µM

O=C1NC2CCCCC2N=C1CC(=O)c1ccc(Br)cc1 (stereo not given)
inactive: RXF 393 19.5 µM | MDA-MB-231 16.2 µM | SK-OV-3 28.2 µM | HL-60 > 100 µM | ACHN 49.1 µM | Malme-3M > 100 µM | HOP-92 10.2 µM | RPMI-8226 2.83 µM | U-251 20.6 µM | SF-295 17.9 µM | UACC-257 > 100 µM | Hs-578T 4.86 µM | SK-MEL-2 70.6 µM | LOX IMVI 19.2 µM | NCI/ADR-RES 4.07 µM | SW-620 > 100 µM | K562 > 100 µM | SN12C 27.7 µM | CAKI-1 > 100 µM | SR > 100 µM
